Here are results for 16 compounds from US10821115B2, “Compounds that inhibit Mcl-1 protein” (priority 2017, dated 2020).

Read-outs that look alike come from different tables or passages of the source.

Assay [1] concerns the target recombinant human Mcl-1 (residues 171-327) / Bim interaction (Homo sapiens (Human), UniProt Q07820). Description: biochemical. Particulars: read-out: Mcl-1 HTRF IC50. The assay is classed as binding. Background: Time-resolved FRET reads energy transfer from a long-lived donor to a nearby acceptor.
The test system of assay [2] is human multiple myeloma cell line, OPM-2. Description: Cell viability assay (OPM-2 10 FBS), CellTiter-Glo. Type of assay: cell-based. In short, it runs like this: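 Steps: plate cells at 3000/well in 10% FBS growth medium, add serially diluted compound, incubate 16 h at 37 °C with 5% CO2, add detection reagent and read luminescence after 25 min. A 4-parameter logistic model gives IC50.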

[3] abbreviates: 0.1 nM Mcl-1(171-327), 0.05 nM biotin-Bim (51-76).
[4] abbreviates: Homo sapiens, OPM-2, 16 h, read-out: OPM-2 10% FBS IC50 IP, OPM-2 cells, 10% FBS, 16 h incubation.
[5] abbreviates: TR-FRET, Mcl-1(171-327) / biotin-Bim (51-76).
The mark [6] stands for this setting: read-out: OPM-2 10% FBS IC50 IP, OPM-2 cells, 10% FBS, 16 h, CellTiter-Glo.
Where [7] appears, read: Homo sapiens, OPM-2, 16 h, read-out: OPM-2 10% FBS IC50 IP, OPM-2 cells, 10% FBS, 16 h, CellTiter-Glo.

Chain of recombinant human Mcl-1 (residues 171-327) / Bim interaction (Q07820 171-327): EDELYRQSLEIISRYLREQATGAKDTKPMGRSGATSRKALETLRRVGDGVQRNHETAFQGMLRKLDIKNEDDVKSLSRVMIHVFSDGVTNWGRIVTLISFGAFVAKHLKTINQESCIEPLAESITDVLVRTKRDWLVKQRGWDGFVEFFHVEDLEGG

One may read the IC50 as the point on the concentration scale where inhibition reaches its midpoint. `COCC[C@H]1[C@@H](C)C/C=C/[C@](CN2CCN3CCOC[C@@H]3C2)(OC)[C@@H]2CC[C@H]2CN2C[C@@]3(CCCc4cc(Cl)ccc43)COc3ccc(nc32)C(=O)NS1(=O)=O` [Example 22, (1S,3′R,6′R,7′S,8′E,11′S,12′S)-6-chloro-7′-((9aS)-hexahydropyrazino[2,1-c][1,4]oxazin-8(1H)-ylmethyl)-7′-methoxy-12′-(2-methoxyethyl)-11′-methyl-3,4-dihydro-2H,15′H-spiro[naphthalene-1,22′-[20]oxa[13]thia[1,14,25]triazatetracyclo [14.7.2.0~3,6~.0~19,24~]pentacosa[8,16,18,24]tetraen]-15′-one 13′,13′-dioxide]: the IC50 came to 0.669 nM in assay [1] (setting [3]) and 2230 nM in assay [2] (setting [4]).
The like results for `CO[C@@]1(CN2CC(N3CCS(=O)(=O)CC3)C2)/C=C/C[C@H](C)[C@@H](C)S(=O)(=O)NC(=O)c2ccc3c(c2)N(C[C@@H]2CC[C@H]21)C[C@@]1(CCCc2cc(Cl)ccc21)CO3` [Example 279, (1S,3′R,6′R,7′S,8′E,11′S,12′R)-6-chloro-7′-((3-(1,1-dioxido-4-thiomorpholinyl)-1-azetidinyl)methyl)-7′-methoxy-11′,12′-dimethyl-3,4-dihydro-2H,15′H-spiro[naphthalene-1,22′-[20]oxa[13]thia[1,14]diazatetracyclo [14.7.2.0~3,6~.0~19,24~]pentacosa[8,16,18,24]tetraen]-15′-one 13′,13′-dioxide] were, in that order, 0.084 nM and 453 nM.
In the case of `C[C@@H]1[C@@H](C)C/C=C/[C@@](O)([C@@H]2CCN(C)C2=O)[C@@H]2CC[C@H]2CN2C[C@@]3(CCCc4cc(Cl)ccc43)COc3ccc(cc32)C(=O)NS1(=O)=O` [Example 100106, (1S,3′R,6′R,7′S,8′E,11′S,12′R)-6-chloro-7′-hydroxy-11′,12′-dimethyl-7′-((3S)-1-methyl-2-oxo-3-pyrrolidinyl)-3,4-dihydro-2H,15′H-spiro[naphthalene-1,22′-[20]oxa[13]thia[1,14]diazatetracyclo [14.7.2.0~3,6~.0~19,24~]pentacosa[8,16,18,24]tetraen]-15′-one 13′,13′-dioxide], the IC50 in assay [1] (setting [5]) worked out at 0.143 nM; in assay [2] (setting [6]) it was 121 nM.
In the case of `C[C@@H]1[C@@H](C)C/C=C/C(O)([C@H]2OCCN(C)C2=O)[C@@H]2CC[C@H]2CN2C[C@@]3(CCCc4cc(Cl)ccc43)COc3ccc(cc32)C(=O)NS1(=O)=O` (single isomer, unassigned) [Example 100019], the IC50 in assay [1] (setting [5]) was 0.182 nM; in assay [2] (setting [7]) it was 58 nM.
Taken in the same sequence, the figures for `C[C@@H]1[C@@H](C)C/C=C/[C@@](O)(c2ncccn2)[C@@H]2CC[C@H]2CN2C[C@@]3(CCCc4cc(Cl)ccc43)COc3ccc(cc32)C(=O)NS1(=O)=O` [Example 100275, (1S,3′R,6′R,7′S,8′E,11′S,12′R)-6-chloro-7′-hydroxy-11′,12′-dimethyl-7′-(2-pyrimidinyl)-3,4-dihydro-2H,15′H-spiro[naphthalene-1,22′-[20]oxa[13]thia[1,14]diazatetracyclo [14.7.2.0~3,6~.0~19,24~]pentacosa[8,16,18,24]tetraen]-15′-one 13′,13′-dioxide] were 0.113 nM and 309 nM.
As to `CO[C@@]1(CN2CCN(CC(F)(F)F)CC2)/C=C/C[C@H](C)[C@@H](C)S(=O)(=O)NC(=O)c2ccc3c(c2)N(C[C@@H]2CC[C@H]21)C[C@@]1(CCCc2cc(Cl)ccc21)CO3` [Example 248, (1S,3′R,6′R,7′S,8′E,11′S,12′R)-6-chloro-7′-methoxy-11′,12′-dimethyl-7′-((4-(2,2,2-trifluoroethyl)-1-piperazinyl)methyl)-3,4-dihydro-2H,15′H-spiro[naphthalene-1,22′-[20]oxa[13]thia[1,14]diazatetracyclo [14.7.2.0~3,6~.0~19,24~]pentacosa[8,16,18,24]tetraen]-15′-one 13′,13′-dioxide], the values for the half-inhibitory concentration (IC50) in assay [1] (setting [3]) and in assay [2] (setting [4]) were 0.222 nM and 518 nM, respectively.
On to `CO[C@]1(CC(=O)N2CC[C@@H](N(C)C)C2)/C=C/C[C@H](C)[C@@H](C)S(=O)(=O)NC(=O)c2ccc3c(c2)N(C[C@@H]2CC[C@H]21)C[C@@]1(CCCc2cc(Cl)ccc21)CO3` [Example 100317, (1S,3′R,6′R,7′R,8′E,11′S,12′R)-6-chloro-7′-(2-((3R)-3-(dimethylamino)-1-pyrrolidinyl)-2-oxoethyl)-7′-methoxy-11′,12′-dimethyl-3,4-dihydro-2H,15′H-spiro[naphthalene-1,22′-[20]oxa[13]thia[1,14]diazatetracyclo [14.7.2.0~3,6~.0~19,24~]pentacosa[8,16,18,24]tetraen]-15′-one 13′,13′-dioxide], for which the IC50 in assay [1] (setting [5]) came out at 0.188 nM; in assay [2] (setting [7]), 157 nM.
With `COCC[C@@H]1[C@@H](C)C/C=C/[C@](CN2CCN(C)CC2)(OC)[C@@H]2CC[C@H]2CN2C[C@@]3(CCCc4cc(Cl)ccc43)COc3ccc(cc32)C(=O)NS1(=O)=O` [Example 180, (1S,3′R,6′R,7′S,8′E,11′S,12′R)-6-chloro-7′-methoxy-12′-(2-methoxyethyl)-11′-methyl-7′-((4-methyl-1-piperazinyl)methyl)-3,4-dihydro-2H,15′H-spiro[naphthalene-1,22′-[20]oxa[13]thia[1,14]diazatetracyclo [14.7.2.0~3,6~.0~19,24~]pentacosa[8,16,18,24]tetraen]-15′-one 13′,13′-dioxide], the figures for the IC50 in assay [1] (setting [3]) and in assay [2] (setting [4]) were 0.106 nM and 81 nM, respectively.
In the case of `COCC[C@@H]1[C@@H](C)C/C=C/[C@](CN2CCN(C(COC)COC)CC2)(OC)[C@@H]2CC[C@H]2CN2C[C@@]3(CCCc4cc(Cl)ccc43)COc3ccc(nc32)C(=O)NS1(=O)=O` [Example 25, (1S,3′R,6′R,7′S,8′E,11′S,12′R)-6-chloro-7′-methoxy-12′-(2-methoxyethyl)-7′-((4-(2-methoxy-1-(methoxymethyl)ethyl)-1-piperazinyl)methyl)-11′-methyl-3,4-dihydro-2H,15′H-spiro[naphthalene-1,22′-[20]oxa[13]thia[1,14,25]triazatetracyclo [14.7.2.0~3,6~.0~19,24~]pentacosa[8,16,18,24]tetraen]-15′-one 13′,13′-dioxide], the IC50 in assay [1] (setting [3]) was determined as 0.113 nM; in assay [2] (setting [4]), 41 nM.
In the case of `CO[C@@]1(c2cnccc2F)/C=C/C[C@H](C)[C@@H](C)S(=O)(=O)NC(=O)c2ccc3c(c2)N(C[C@@H]2CC[C@H]21)C[C@@]1(CCCc2cc(Cl)ccc21)CO3` (single isomer, unassigned) [Example 100538], the IC50 stood at 1.47 nM in assay [1] (setting [5]) and 2400 nM in assay [2] (setting [7]).
Take `C=CC[C@]1(O)CCC[C@H](C)[C@@H](C)S(=O)(=O)NC(=O)c2ccc3c(c2)N(C[C@@H]2CC[C@H]21)C[C@@]1(CCCc2cc(Cl)ccc21)CO3` (single isomer, unassigned) [Example 100266]: the IC50 in assay [1] (setting [5]) worked out at 0.292 nM; in assay [2] (setting [6]) it was 571 nM.
On to `C[C@@H]1[C@@H](C)CCC[C@](O)(C[C@H]2CCCN(C)C2)[C@@H]2CC[C@H]2CN2C[C@@]3(CCCc4cc(Cl)ccc43)COc3ccc(cc32)C(=O)NS1(=O)=O` (single isomer, unassigned) [Example 100399], for which the IC50 came to 0.28 nM in assay [1] (setting [5]) and 2810 nM in assay [2] (setting [7]).
Regarding `COC[C@@H]1[C@@H](C)C/C=C/[C@@](CN2CCN(C3COC3)CC2)(OC)[C@@H]2CC[C@H]2CN2C[C@@]3(CCCc4cc(Cl)ccc43)COc3ccc(cc32)C(=O)NS1(=O)=O` [Example 167, (1S,3′R,6′R,7′R,8′E,11′S,12′S)-6-chloro-7′-methoxy-12′-(methoxymethyl)-11′-methyl-7′-((4-(3-oxetanyl)-1-piperazinyl)methyl)-3,4-dihydro-2H,15′H-spiro[naphthalene-1,22′-[20]oxa[13]thia[1,14]diazatetracyclo [14.7.2.0~3,6~.0~19,24~]pentacosa[8,16,18,24]tetraen]-15′-one 13′,13′-dioxide], the IC50 in assay [1] (setting [3]) is 0.086 nM; in assay [2] (setting [4]), 52 nM.
In the case of `CO[C@@]1(CC2=N[C@H](C)C(=O)O2)/C=C/C[C@H](C)[C@@H](C)S(=O)(=O)NC(=O)c2ccc3c(c2)N(C[C@@H]2CC[C@H]21)C[C@@]1(CCCc2cc(Cl)ccc21)CO3` (stereo in doubt) [Example 100531], the IC50 in assay [1] (setting [5]) turned out to be 0.083 nM; in assay [2] (setting [7]) it was 172 nM.
With `CO[C@]1(C[C@H](O)C(C)C)/C=C/C[C@H](C)[C@@H](C)S(=O)(=O)NC(=O)c2ccc3c(c2)N(C[C@@H]2CC[C@H]21)C[C@@]1(CCCc2cc(Cl)ccc21)CO3` [Example 100358, (1S,3′R,6′R,7′R,8′E,11′S,12′R)-6-chloro-7′-((2S)-2-hydroxy-3-methylbutyl)-7′-methoxy-11′,12′-dimethyl-3,4-dihydro-2H,15′H-spiro[naphthalene-1,22′-[20]oxa[13]thia[1,14]diazatetracyclo [14.7.2.0~3,6~.0~19,24~]pentacosa[8,16,18,24]tetraen]-15′-one 13′,13′-dioxide], the figures for the IC50 in assay [1] (setting [5]) and in assay [2] (setting [6]) were 0.118 nM and 81 nM, respectively.
For `CO[C@]1(COCCN2CCOCC2)/C=C/C[C@H](C)[C@@H](C)S(=O)(=O)NC(=O)c2ccc3c(c2)N(C[C@@H]2CC[C@H]21)C[C@@]1(CCCc2cc(Cl)ccc21)CO3` [Example 100594, (1S,3′R,6′R,7′R,8′E,11′S,12′R)-6-chloro-7′-methoxy-11′,12′-dimethyl-7′-((2-(4-morpholinyl)ethoxy)methyl)-3,4-dihydro-2H,15′H-spiro[naphthalene-1,22′-[20]oxa[13]thia[1,14]diazatetracyclo [14.7.2.0~3,6~.0~19,24~]pentacosa[8,16,18,24]tetraen]-15′-one 13′,13′-dioxide], the IC50 came out at 0.143 nM in assay [1] (setting [5]) and 241 nM in assay [2] (setting [7]).
